Measurements taken from patent publication US5021408A, “Hydrocortisone-17-oxo-21-thioesters, their preparation and their uses as medicaments” (Jouveinal S.A., priority 1983, dated 1991).
Where two headings read alike, the source gives them in different places.

Experiments:
[1] = test system: thymus weight; experiment: Systemic (thymolytic) activity, thymus weight reduction after oral administration; type: in vivo, rat (Wistar)
Protocol: (§1) Determination of systemic activity side effects
(§2) These effects were evaluated by means of their thymolytic activity.
(§3) The repeated administration of systemic activity products leads to a weakening of the defence systems of the organism. More especially in young animals, this leads to a reduction in the weight of two organs of the reticuloendothelial system, namely the spleen and the thymus, the latter being the most sensitive to this effect.
(§4) This activity was determined by means of a study of the activity of products on the weight reduction of the thymus of animals.
(§5) The product to be studied, suspended in 5% p/v gum arabic were orally administered daily for four consecutive days to young rats of the Wistar strain. Under the same conditions, a control batch of animals received an identical volume of the excipient.
(§6) 96 hours after the first administration, the animals were killed and their thymus removed and immediately weighed.
(§7) The results of the study are expressed in ED50, which corresponds to the daily dose in milligrams able to bring about a 50% thymus weight reduction for 1 kilogram animal weight, compared with the controls (mg/kg^-1 /day^-1).

[2] = as above; type: in vivo, rat (Wistar); conditions: rat
Protocol: as §1, §2, §3, §4, §5, §6, §7

[3] = Dissociation ratio R local anti-inflammatory activity / systemic activity; type: in vivo, mouse (ear inflammation) and rat (thymus); conditions: lower value = greater dissociation of activities
Protocol: The results obtained by this study make it possible to calculate the activity ratio:
local anti-inflammatory activity
The value of this ratio indicates the dissociation of the activities and is inversely proportional to the size of the dissociation, i.e. the lower this value, the greater the dissociation.
This value was calculated on the basis of the expression: [formula]

[4] = test system: inflammation of the ear in the mouse; experiment: Local anti-inflammatory activity, croton oil ear inflammation (method derived from Tonelli); type: in vivo; conditions: for Anti-inflammatory activity EC50: mouse ear, croton oil, concentration giving 50% reduction in inflammation vs controls; for Anti-inflammatory activity: Activity/ref. 21 act. hydro: relative to hydrocortisone-21-acetate = 1
Protocol: I.1. Local anti-inflammatory activity
This study was carried out in accordance with a method derived from that of Tonelli (Endocrinology, Vol. 77, page 625, 1965).
The test consists of causing inflammation of the ear in the mouse using a croton oil-based irritating solution.
The addition of a local anti-inflammatory substance to this solution leads to a reduced inflammation action compared with that of the controls, i.e. treated with the irritating solution only.
The results of the study are expressed in EC50, which is the p/v % concentration of the dissolved product able to bring about a 50% reduction in the inflammation compared with that caused in the controls.

[5] = test system: granuloma; conditions: according to N. Bodor; cited from earlier work
[6] = test system: erythema; conditions: reported by O. J. Lorenzetti; cited from earlier work
[7] = relative to hydrocortisone-21-acetate = 1
[8] = young Wistar rats, oral, daily for four consecutive days, 50% thymus weight reduction vs controls, read-out: Systemic activity ED50

Systemic activity: Activity/ref. 21 act. hydro [1, 7] | ED50 at 96 h [2, 8] | Structure (SMILES) | Systemic activity: Activity/ref. 21 act. hydro ([1]; rat, in vivo, 5760 min) | ED50 at 96 h ([2]; in vivo, po) | R (local anti-inflammatory activity / systemic activity) [3] | Anti-inflammatory activity EC50 [4] | Anti-inflammatory activity: Activity/ref. 21 act. hydro [4] | systemic activity, times lower than that of prednisolone-21-thioacetate-17-valerate ([1]; rat, in vivo, po, 5760 min) | ED50 at 96 h ([2]; in vivo, young Wistar rats, oral, daily for four consecutive days, 50% thymus weight reduction vs controls, read-out: Systemic activity ED50) | activity in the granuloma test [5] | activity in the erythema test compared with the vasoconstriction test [6]
 |  | CCCCC(=O)O[C@]1(C(=O)CSC(C)=O)CC[C@H]2[C@@H]3C[C@H](C)C4=CC(=O)C=C[C@]4(C)[C@H]3[C@@H](O)C[C@@]21C [6-α-methylprednisolone-21-thioacetate-17-valerate] | 0.325 | 43 mg/kg | 116.3 | 0.5 % p/v | 0.6 |  |  |  | 
 |  | CCCC(=O)O[C@]1(C(=O)CSC(C)=O)CC[C@H]2[C@@H]3CCC4=CC(=O)CC[C@]4(C)[C@H]3[C@@H](O)C[C@@]21C [Example 1, 3,20-dione-11β-hydroxypregn-4-ene-21-thioacetate-17-butyrate] | 0.04 | 350 mg/kg | 0.23 | 0.0082 % p/v | 36.6 | 6 times |  |  | 
 |  | CCCC(=O)O[C@]1(C(=O)CSC(=O)CC)CC[C@H]2[C@@H]3CCC4=CC(=O)CC[C@]4(C)[C@H]3[C@@H](O)C[C@@]21C [Example 2, 3,20-dione-11β-hydroxypregn-4-ene-21-thiopropionate-17-butyrate] | < 0.0096 | > 1450 mg/kg | 0.14 | 0.021 % p/v | 14.3 |  |  |  | 
1.95 | 7.2 mg/kg | CCCC(=O)O[C@]1(C(=O)COC(=O)CC)CC[C@H]2[C@@H]3CCC4=CC(=O)CC[C@]4(C)[C@H]3[C@@H](O)C[C@@]21C [Hydrocortisone-21-propionate-17-butyrate, hydrocortisone-21-propionate-17-butyrate] |  |  | 6.52 | 0.0047 % p/v | 63.8 |  |  |  | 
 |  | CCCCC(=O)O[C@]1(C(=O)COC(C)=O)CC[C@H]2[C@@H]3CCC4=CC(=O)C=C[C@]4(C)[C@H]3[C@@H](O)C[C@@]21C [Prednisolone-21-acetate-17-valerate, prednisolone-21-acetate-17-valerate] | 1.60 | 9 mg/kg | 2.0 | 0.0018 % p/v | 167 |  |  |  | 
 |  | CCCCC(=O)O[C@]1(C(=O)CSC(C)=O)CC[C@H]2[C@@H]3CCC4=CC(=O)C=C[C@]4(C)[C@H]3[C@@H](O)C[C@@]21C [Prednisolone-21-thioacetate-17-valerate] | 0.24 | 58 mg/kg | 1.38 | 0.008 % p/v | 37.5 |  |  |  | 
 |  | CCC(=O)O[C@]1(C(=O)CSC(=O)CC)[C@@H](C)C[C@H]2[C@@H]3CCC4=CC(=O)C=C[C@]4(C)[C@@]3(Cl)[C@@H](O)C[C@@]21C [beclomethasone-21-thiopropionate-17-propionate] | 0.74 | 19 mg/kg | 9.21 | 0.0175 % p/v | 17.1 |  |  |  | 
 |  | CCC(=O)O[C@]1(C(=O)CSC(C)=O)[C@@H](C)C[C@H]2[C@@H]3CCC4=CC(=O)C=C[C@]4(C)[C@@]3(F)[C@@H](O)C[C@@]21C [betamethasone-21-thioacetate-17-propionate] | 5.60 | 2.5 mg/kg | 40.0 | 0.010 % p/v | 30.0 |  |  |  | 
 |  | CCC(=O)SCC(=O)[C@@]1(OC(C)=O)[C@@H](C)C[C@H]2[C@@H]3CCC4=CC(=O)C=C[C@]4(C)[C@@]3(F)[C@@H](O)C[C@@]21C [betamethasone-21-thiopropionate-17-acetate] | 5.83 | 2.4 mg/kg | 50.0 | 0.012 % p/v | 25.0 |  |  |  | 
 |  | CCC(=O)O[C@]1(C(=O)CSC(=O)CC)[C@@H](C)C[C@H]2[C@@H]3CCC4=CC(=O)C=C[C@]4(C)[C@@]3(F)[C@@H](O)C[C@@]21C [betamethasone-21-thiopropionate-17-propionate] | 4.66 | 3 mg/kg | 4.33 | 0.0013 % p/v | 231 |  |  |  | 
 |  | CC(=O)O[C@]1(C(=O)CSC(=O)CC(C)(C)C)[C@H](C)C[C@H]2[C@@H]3CCC4=CC(=O)C=C[C@]4(C)[C@@]3(F)[C@@H](O)C[C@@]21C [dexamethasone-21-thiotertiobutylacetate-17-acetate] | 4.67 | 3 mg/kg | 30.7 | 0.0092 % p/v | 32.6 |  |  |  | 
 |  | CCCC(=O)O[C@]1(C(=O)CO)CC[C@H]2[C@@H]3CCC4=CC(=O)CC[C@]4(C)[C@H]3[C@@H](O)C[C@@]21C [hydrocortisone-17-butyrate] |  |  |  |  |  |  |  | only has a limited activity in the granuloma test | good similarity of activity compared with the vasoconstriction test
1 | 14 mg/kg | CC(=O)OCC(=O)[C@@]1(O)CC[C@H]2[C@@H]3CCC4=CC(=O)CC[C@]4(C)[C@H]3[C@@H](O)C[C@@]21C [hydrocortisone-21-acetate] |  |  | 214 | 0.30 % p/v | 1 |  |  |  | 

Structure (SMILES) | Systemic activity: Activity/ref. 21 act. hydro [1, 7] | ED50 at 96 h [2, 8] | Systemic activity: Activity/ref. 21 act. hydro ([1]; rat, in vivo, 5760 min) | ED50 at 96 h ([2]; in vivo, po) | R (local anti-inflammatory activity / systemic activity) [3] | Anti-inflammatory activity EC50 [4] | Anti-inflammatory activity: Activity/ref. 21 act. hydro [4] | systemic activity, times lower than that of prednisolone-21-thioacetate-17-valerate ([1]; rat, in vivo, po, 5760 min) | ED50 at 96 h ([2]; in vivo, young Wistar rats, oral, daily for four consecutive days, 50% thymus weight reduction vs controls, read-out: Systemic activity ED50) | activity in the granuloma test [5] | activity in the erythema test compared with the vasoconstriction test [6]
CC(C)(C)C(=O)SCC(=O)[C@@]1(O)CC[C@H]2[C@@H]3CCC4=CC(=O)CC[C@]4(C)[C@H]3[C@@H](O)C[C@@]21C [Hydrocortisone-21-thiopivalate, hydrocortisone-21-thiopivalate] | 0.0038 |  |  |  | 6.90 | 2.5 % p/v | 0.12 |  | 3600 mg/kg |  | 
